In patent US20260206786A1, “PROCEDURE FOR PREPARING COMPOSITIONS WITH A HIGH CONTENT OF BIOACTIVE COMPOUNDS” (I.T.P. S.R.L. INNOVATION & TECHNOLOGY PROVIDER, priority 2022, published 2026):
Where two headings read alike, the source gives them in different places.

Tests used:
[1] = Concentration of bioactive compound in oil enriched by the process of the invention; assay type: physicochemical
Experimental: (§1) Spectrophotometric analyses were performed using an ONDA UV/VIS Spectrophotometer, Model UV-31 SCAN. The oil samples were suitably diluted in RPE ethanol supplied by Carlo Erba. Scans were performed in the wavelength range of 600 nm and 300 nm, with a step size of 1 nm, using optical glass cuvettes.
(§2) HPLC analyses were performed using an Agilent HPLC Chromatograph, 1100 Series, equipped with an Agilent Technologies 1200 Series DAD UV/VIS detector, using an Agilent Eclipse plus 95 Å C18 Column, (100 mm—4.6 mm, 3.5 μm). Acetonitrile, Methanol, Water and Formic Acid for HPLC supplied by Sigma-Aldrich were used for the mobile phase.
At the end of the process, 5 mL of enriched oil was recovered with a concentration expressed as mass of lycopene per mass of oil of 35 mg/100 g, a concentration measured at 25° C. after centrifuging the oil for 15 minutes at 10,000 RPM.

[2] = Comparison of process of the invention with maceration in oil, UV/VIS spectra; assay type: physicochemical
Experimental: as §1
(§3) In order to compare the efficacy of the method of the invention with the traditional method of enrichment by maceration in oil, enrichment of vegetable oils was carried out using both methods. Subsequently, equal amounts of oil obtained using the two methods were solubilised in a suitable solvent, respecting the same dilution ratio, and the resulting solutions were subjected to chromatographic and spectrophotometric analysis.

[3] = traditional preparation techniques, literature, cited from earlier work
[4] = Comparison of process of the invention with maceration in oil, HPLC chromatograms; assay type: physicochemical; conditions: Argan oil; Example 1 versus maceration of pure lycopene powder in oil
Experimental: as §2, §3

Row | concentration expressed as mass of Capsaicin on mass of oil ([1]; deodorised sunflower oil enriched per Example 3 (R134a, 35° C., 7.66 atm, 90 minutes), measured at 25° C. after centrifugation 15 minutes at 10,000 RPM) | capsaicin concentration (absorbance at 280 nm), innovative methodology versus traditional methodology ([2]; sunflower oil, Example 3 versus maceration) | concentration expressed as mass of Curcumin on mass of oil ([1]; wheat germ oil enriched per Example 2 (R1234ze, 28° C., 4.5 atm, 355 minutes), measured at 25° C. after centrifugation 15 minutes at 10,000 RPM) | lycopene concentration (HPLC peak area), process of the invention versus conventional method [4] | concentration expressed as mass of lycopene per mass of oil ([1]; refined argan oil enriched per Example 1 (R1234ze, 28° C., 4.5 atm, 120 minutes), measured at 25° C. after centrifuging 15 minutes at 10,000 RPM) | lycopene concentration (absorbance at 502 nm), process of the invention versus traditional methodology ([2]; Argan oil, Example 1 versus maceration of pure lycopene powder in oil) | Structure (SMILES) | maximum concentration in vegetable oil ([3]; listed as capsicin) | maximum concentration in vegetable oil [3]
1 | 61.2 mg/100 g | approximately 6 times | – | – | – | – | COc1cc(CNC(=O)CCCC/C=C/C(C)C)ccc1O [capsaicin] | ≤ 10 mg per 100 g of oil | no more than 10 mg per 100 g of oil
2 | – | – | 1420 mg/100 g | – | – | – | COc1cc(/C=C/C(=O)CC(=O)/C=C/c2ccc(O)c(OC)c2)ccc1O [curcumin] | – | –
3 | – | – | – | about 3.3 times | 35 mg/100 g | approximately 3.3 times | CC(C)=CCC/C(C)=C/C=C/C(C)=C/C=C/C(C)=C/C=C/C=C(C)/C=C/C=C(C)/C=C/C=C(\C)CCC=C(C)C [lycopene] | – | 7-8 mg per 100 g of oil
